Assay [1] is described as follows: Cytotoxicity against human HCT116 cells by SRB assay. Particulars: HCT-116. The assay is classed as functional, cell-based. In general terms: In SRB staining, fixed cells bind dye roughly in proportion to their protein.
The species entered for assay [2] is Homo sapiens. As to the kind of experiment: Inhibition of PTK (unknown origin) at 1 uM by ELISA. For orientation: An ELISA detects its analyte on a solid surface through an enzyme-linked reagent.
Assay [3] concerns the target Platelet-derived growth factor receptor beta (Homo sapiens) (UniProt P09619). The experiment in a line: Inhibition of PDGFR-beta (unknown origin) at 1 uM by ELISA.
In assay [4] the target is Receptor tyrosine-protein kinase erbB-4 (Homo sapiens) (UniProt Q15303). As to the kind of experiment: Inhibition of ErbB4 (unknown origin) at 1 uM by ELISA.
Sequence of Receptor tyrosine-protein kinase erbB-4 (Homo sapiens) (Q15303 whole entry): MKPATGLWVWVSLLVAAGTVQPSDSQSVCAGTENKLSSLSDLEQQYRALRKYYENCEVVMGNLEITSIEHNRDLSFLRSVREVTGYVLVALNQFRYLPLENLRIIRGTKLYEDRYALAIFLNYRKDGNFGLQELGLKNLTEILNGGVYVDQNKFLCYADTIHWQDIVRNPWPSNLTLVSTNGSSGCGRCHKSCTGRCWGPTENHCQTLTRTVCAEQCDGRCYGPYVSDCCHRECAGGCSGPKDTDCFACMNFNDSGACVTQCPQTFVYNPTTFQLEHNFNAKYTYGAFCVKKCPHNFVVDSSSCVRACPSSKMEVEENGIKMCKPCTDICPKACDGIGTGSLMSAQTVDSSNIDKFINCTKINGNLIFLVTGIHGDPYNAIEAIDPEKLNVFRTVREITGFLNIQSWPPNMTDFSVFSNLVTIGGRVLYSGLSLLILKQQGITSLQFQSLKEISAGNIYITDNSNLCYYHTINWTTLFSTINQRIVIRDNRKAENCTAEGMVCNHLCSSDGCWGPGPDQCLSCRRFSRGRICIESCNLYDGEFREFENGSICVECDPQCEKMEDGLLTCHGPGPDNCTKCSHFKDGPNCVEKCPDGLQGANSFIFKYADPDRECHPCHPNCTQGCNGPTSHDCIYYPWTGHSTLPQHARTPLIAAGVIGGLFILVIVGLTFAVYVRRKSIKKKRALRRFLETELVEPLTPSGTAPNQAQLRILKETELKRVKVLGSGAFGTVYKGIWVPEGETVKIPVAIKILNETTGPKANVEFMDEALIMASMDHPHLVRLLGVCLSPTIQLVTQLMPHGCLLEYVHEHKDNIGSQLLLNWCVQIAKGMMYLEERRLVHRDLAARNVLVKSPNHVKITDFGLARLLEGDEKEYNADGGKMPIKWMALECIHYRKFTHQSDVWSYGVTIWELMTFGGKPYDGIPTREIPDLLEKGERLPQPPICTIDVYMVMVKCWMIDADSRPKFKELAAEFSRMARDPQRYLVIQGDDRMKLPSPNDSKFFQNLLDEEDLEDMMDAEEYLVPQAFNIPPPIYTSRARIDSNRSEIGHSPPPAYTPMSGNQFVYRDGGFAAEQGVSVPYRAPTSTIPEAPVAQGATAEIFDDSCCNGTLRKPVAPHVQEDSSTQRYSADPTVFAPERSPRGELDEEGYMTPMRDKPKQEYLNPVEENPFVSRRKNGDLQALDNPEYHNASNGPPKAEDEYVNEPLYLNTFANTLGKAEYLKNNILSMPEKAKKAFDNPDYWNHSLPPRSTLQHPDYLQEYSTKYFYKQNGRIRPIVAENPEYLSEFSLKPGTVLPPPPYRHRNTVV

The source made the active and inactive calls. The calls are words filed in the database; no cut-off is given here.

Usually IC50 stands for the concentration that inhibits the measured activity by half. The low end stands for greater potency in that assay, the high end for weaker potency in that assay. Usually inhibition stands for how much of the control response was suppressed.

Sequence of Platelet-derived growth factor receptor beta (Homo sapiens) (P09619 whole entry): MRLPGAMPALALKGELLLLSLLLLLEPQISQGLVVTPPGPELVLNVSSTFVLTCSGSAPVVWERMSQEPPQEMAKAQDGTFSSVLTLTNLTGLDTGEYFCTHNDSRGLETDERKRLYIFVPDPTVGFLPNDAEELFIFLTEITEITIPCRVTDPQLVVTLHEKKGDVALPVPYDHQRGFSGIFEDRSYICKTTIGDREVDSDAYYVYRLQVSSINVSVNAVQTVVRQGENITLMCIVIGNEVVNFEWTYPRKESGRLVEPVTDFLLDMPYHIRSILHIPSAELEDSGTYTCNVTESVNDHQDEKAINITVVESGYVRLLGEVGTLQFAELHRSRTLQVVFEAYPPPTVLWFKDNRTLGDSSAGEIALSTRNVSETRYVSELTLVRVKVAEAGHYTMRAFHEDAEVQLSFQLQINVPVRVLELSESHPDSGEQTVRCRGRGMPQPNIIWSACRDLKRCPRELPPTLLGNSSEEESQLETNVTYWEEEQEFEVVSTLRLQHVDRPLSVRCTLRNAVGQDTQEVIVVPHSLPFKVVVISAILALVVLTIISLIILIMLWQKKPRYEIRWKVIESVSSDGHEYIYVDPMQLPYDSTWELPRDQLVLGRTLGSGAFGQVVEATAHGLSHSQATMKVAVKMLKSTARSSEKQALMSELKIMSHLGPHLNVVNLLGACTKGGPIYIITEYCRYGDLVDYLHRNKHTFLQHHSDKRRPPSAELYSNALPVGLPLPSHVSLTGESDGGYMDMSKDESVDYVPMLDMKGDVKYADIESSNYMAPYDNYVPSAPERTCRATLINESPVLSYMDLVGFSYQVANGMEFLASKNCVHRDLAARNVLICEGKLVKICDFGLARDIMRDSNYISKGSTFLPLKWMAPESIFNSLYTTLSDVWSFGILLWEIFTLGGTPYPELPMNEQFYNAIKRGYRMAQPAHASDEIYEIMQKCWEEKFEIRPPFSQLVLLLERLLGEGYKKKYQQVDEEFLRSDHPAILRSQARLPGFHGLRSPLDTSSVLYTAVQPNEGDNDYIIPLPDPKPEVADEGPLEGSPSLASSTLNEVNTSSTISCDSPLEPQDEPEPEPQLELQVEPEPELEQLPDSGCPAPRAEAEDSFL

In assay [1], `COc1cccc2c1C(=O)c1c(O)c3c(c(O)c1C2=O)C[C@@](O)(C(=O)CO)C[C@@H]3O[C@H]1C[C@H](N)[C@H](O)[C@H](C)O1` [DOXORUBICIN] registered an IC50 of 0.2 µM. This counts as sub-micromolar.
With `CC[C@@H](C)/C=C/CCCC/C=C/C=C/C=C/C(=O)N[C@@H]1CO[C@@]2(O)C=C[C@@H](Cl)[C@H](O)[C@@]2(O)C1`, in assay [1], 2.8 µM corresponded to half-maximal inhibition (IC50). In assay [2], the inhibition entry is “Active”. Also, the values for the inhibition in assay [3] and in assay [4] were 50% and 40%, respectively.
